This note sets out measurements from patent publication US20230097085A1, “[6R]-MTHF IN 5-FU BASED CHEMOTHERAPY OF RIGHT-SIDED COLORECTAL CANCER” (Isofol Medical AB, priority 2021, published 2023).

A value given as a limit tells only on which side of the number the result lay.

The test system of this test is solid colorectal cancer tumors (metastatic colorectal cancer). The test can be described thus: Clinical study ISO-CC-005 (safety extension cohorts #18/#19 and Follow-up study): tumour response by CT/MRI per RECIST 1.1. Type of test: in vivo, human. The text has this: As used herein, the term ORR shall refer to the Objective Response Rate, ie. the proportion of patients with reduction in tumor burden of a predefined amount. […] (Note: the appearance of one or more new lesions is also considered progression). […] 2019. The completion of the study was announced in January 2020. In total, 105 patients were included in the study. Applicant completed the dose definition part of ISO-CC-005 in March 2018, which evaluated the safety and efficacy of arfolitixorin in patients with mCRC. Shortly after, applicant started two additional treatment groups in 2018 to generate more safety and efficacy data, i.e. the safety extension Cohort #18 (Treatment Arm #4) and Cohort #19 (Treatment Arm #6). The aim was to evaluate as many patients as possible from the additional treatment groups after a treatment period of 16 weeks+. On 30 Sep. 2020, applicant announced response assessment data from the two safety extension cohorts (31 patients) treated for 16 weeks or longer (press release: 55% Overall Response Rate on the safety extension cohorts of the ISO-CC-005 Phase Ulla study BioSpace). […] Out of the 31 patients, 17 were treated with an ARFOX regimen. Clinical Study ISO-CC-005 was an exploratory, […] multiple-centre study to be carried out in Stadium IV CRC patients. […] In the Main Study, patients received study treatment with arfolitixorin during eight (8) weeks. Patients eligible for the Follow-up study could participate until reaching progress, but no longer than 18 months. Enrolled patients, stadium IV CRC patients, were aware of the relatively poor prognosis of their disease. Those patients who could continue benefitting from treatment with a […] effective therapy, were offered the possibility to continue study treatment by participating in the Follow-up Study. In the Follow-up Study patients continued to receive the same treatment as assigned during the Main Study period. However, the Investigator could complete the allocated treatment with other therapeutic agents of choice in alignment with standard of care in order to adapt treatment to the patient's specific needs and, in this way, provide optimal care. Response was measured in short- and long-term assessments. During the Main Study phase, only short-term assessments of tumour response were explored by means of objective response rate (ORR) and early tumour shrinkage (ETS). These assessments were to be used as indicators of prognostic factor in ascertaining earlier non responders and to explore the correlation to other factors such as folate levels, tumour biomarkers, or expression levels of certain key genes. […]

With `Nc1nc2c(c(=O)[nH]1)N1CN(c3ccc(C(=O)N[C@@H](CCC(=O)O)C(=O)O)cc3)C[C@H]1CN2` [arfolitixorin, [6R]-5,10-methylenetetrahydrofolate], the “best overall response rate (ORR)” value (31 patients of the two safety extension cohorts treated 16 weeks or longer, 120 mg/m2 arfolitixorin + 5-FU with irinotecan or oxaliplatin (ARFIRI/ARFOX)) worked out at 55%. Besides, the “progression of solid tumors between 8 and 16 weeks after initiating treatment” value ([6R]-MTHF and 5-FU, treatment period of at least 8 weeks, Phase I/IIa study ISO-CC-005) is “No statistically significant progression”. Further, the “best ORR in patients diagnosed with RCRC” value (right-sided CRC patients (13) of the 31-patient group, after 16 weeks and beyond, 120 mg/m2 arfolitixorin + 5-FU + irinotecan or oxaliplatin) is reported as 46%. For the same compound, where the note is “right-sided CRC patients incl. BRAF/KRAS mutation-positive, protocol over at least 16 weeks with multiple rapid boluses”, the “best ORRs (objective response rates) that can be achieved” value is on record as over 50%.
